Laboratory results taken from patent US5843925A, “Methods for inhibiting angiogenesis, proliferation of endothelial or tumor cells and tumor growth” (American Cyanamid Company, priority 1994, dated 1998).
Where a name gives a salt, the structure may show the parent alone.

Assays:
SW620 = assay: Antiproliferative activity in human tumor cell lines (SW620); format: cell-based; conditions: SW-620, SW620 colon tumor cell line
Description: PROTOCOLS 1, 2, and 3 are described in greater detail hereinbelow. In general, according to PROTOCOLS 1 and 2, the target ABAE and/or Human Tumor cells are exposed to the compound of Formula I for 48 hours. PROTOCOL 3 exposes ABAE cells to the compounds for 4 days. A detailed description of the protocol is as follows:
The antiproliferative activity of the compounds of Formula I of the present invention is evaluated in a panel comprised of human tumor cell lines and an adult bovine aortic endothelial cell line (ABAE). The human tumor cell lines are from
All cell lines are maintained in log phase in RPMI 1640 media, supplemented with 5% fetal calf serum, penicillin/streptomycin and 2 mM L-glutamine. Cultures are renewed after 20 passages with cells from a fresh stock of batch-frozen early passage cells. Cell lines are routinely checked for mycoplasma contamination (Genprobe). In a laminar flow hood, cells (1-5×10^4) are plated into 96-well microtiter plates in a volume of 0.1 ml/well with a bulk microtiter dispenser (Denley). […] At this concentration, dimethylsulfoxide has no effect on cell growth. Compounds are added using a Tomtec dispenser which simultaneously dispenses from one 96-well plate, containing the drug dilutions, to the plates containing the cells. After two days of continuous drug exposure, 50% cold trichloroacetic acid (TCA) is added to 10% final concentration to fix the cells, and after 60 minutes at 4° C., the TCA is aspirated and the plates are washed 5 times with deionized water using a microtiter plate washer. The number of cells on the plate are quantitated using a protein dye-binding assay (Monks et al., 1991). A 0.4% solution of the dye, sulforhodamine B, in glacial acetic acid is added to the plates, and the plates are washed 5 times with 1% glacial acetic acid using the automatic plate washed. The bound stain is solubilized with 0.1 ml of 10 mM Tris base. The optical densities are read from an automatic spectrophotometric plate reader (Dynatech) directly to a main frame computer (VAX 8600).
Positive controls, that include standard chemotherapeutic drugs (i.e., adriamycin, cisplatin, etc.), are included in every experiment.
Background optical density measurements (complete media-cells, and complete media+drug-cells) are automatically subtracted from the appropriate control and test wells. Mean values and standard errors are determined from duplicate wells. A measure is also made of the optical density at time when the drugs are added. The number of cells after treatment (P), as % of control, is calculated for every concentration of drug, as follows: [formula] wherein: T is optical density measurement for treated cells after 48 hours;
C is optical density measurement for untreated cells after 48 hours;
Co is optical density measurement for cells at the time of drug addition.
IC50 of growth inhibition is calculated from the sets of P values using the RS-1 data package (BBN Software).
Antiproliferative Activity in Human Tumor Cell Lines
The antiproliferative activity of the compounds of Formula I is evaluated in the panel comprised of human tumor cell lines as listed in PROTOCOL 1. This assay is a slight modification of PROTOCOL 1. The modifications include:
1) each concentration for each compound is tested in a single well;
2) compounds are tested at 20, 4, 0.8, 0.16 microgram/ml and additionally in some experiments at 100 and 0.32 microgram/ml;
3) samples are pipetted into a 96-well plate for each of the cell lines by a Beckman Biomek 1000 SL robot;
4) after fixing with TCA each well is washed with 0.35 ml distilled water twice, not five times;
5) after staining with sulforhodamine B each well is washed 3 times, not five times;
6) the growth inhibition (I) as % of control, is calculated using the RS-1 data package (BBN Software), for every concentration of drug, as follows: [formula] wherein: T is optical density measurement for treated cells after 48 hours; […]

[1] = system: Adult Bovine Aortic Endothelial (ABAE) cell line; assay: Antiproliferative activity in Adult Bovine Aortic Endothelial (ABAE) cell line, PROTOCOL 1; format: cell-based; conditions: Bos taurus; ABAE cells, 48 hours exposure
Description: The antiproliferative activity of the compounds of Formula I in an Adult Bovine Aortic Endothelial (ABAE) cell line and in Human Tumor cells lines is evaluated in three similar assays that measure growth inhibition. The assays are identified as follows: PROTOCOLS 1, 2, and 3 are described in greater detail hereinbelow. In general, according to PROTOCOLS 1 and 2, the target ABAE and/or Human Tumor cells are exposed to the compound of Formula I for 48 hours. PROTOCOL 3 exposes ABAE cells to the compounds for 4 days. A detailed description of the protocol is as follows: The antiproliferative activity of the compounds of Formula I of the present invention is evaluated in a panel comprised of human tumor cell lines and an adult bovine aortic endothelial cell line (ABAE). The human tumor cell lines are from All cell lines are maintained in log phase in RPMI 1640 media, supplemented with 5% fetal calf serum, penicillin/streptomycin and 2 mM L-glutamine. Cultures are renewed after 20 passages with cells from a fresh stock of batch-frozen early passage cells. Cell lines are routinely checked for mycoplasma contamination (Genprobe). […] The number of cells on the plate are quantitated using a protein dye-binding assay (Monks et al., 1991). […] The optical densities are read from an automatic spectrophotometric plate reader (Dynatech) directly to a main frame computer (VAX 8600). […] Mean values and standard errors are determined from duplicate wells. […] The number of cells after treatment (P), as % of control, is calculated for every concentration of drug, as follows: [formula] wherein: T is optical density measurement for treated cells after 48 hours; C is optical density measurement for untreated cells after 48 hours; Co is optical density measurement for cells at the time of drug addition. IC50 of growth inhibition is calculated from the sets of P values using the RS-1 data package (BBN Software). Table 2 presents the results depicting the antiproliferative activity of the compounds of Formula I against an adult bovine aortic endothelial cell line (ABAE), as evaluated by PROTOCOL 1 and PROTOCOL 3. […]

| Compound | IC50 (SW620) [µg/mL] | IC50 [1] [µg/mL] |
| --- | --- | --- |
| CCCCCCNCC(=O)Nc1cc(N(C)C)c2c(c1O)C(=O)C1=C(O)[C@]3(O)C(=O)C(C(N)=O)=C(O)[C@@H](N(C)C)C3CC1C2 (stereo partly drawn) [Example 4, [4S-(4α,12aα)]-4,7-Bis(dimethylamino)-9-[(hexylamino)acetyl]amino]-1,4,4a,5,5a,6,11,12a-octahydro-3,10,12,12a-tetrahydroxy-1,11-dioxo-2-naphthacenecarboxamide dihydrochloride] | 2.7 | 2.4 |
| CCCCCCCNCC(=O)Nc1cc(N(C)C)c2c(c1O)C(=O)C1=C(O)[C@]3(O)C(=O)C(C(N)=O)=C(O)[C@@H](N(C)C)C3CC1C2 (stereo partly drawn) [Example 5, [4S-(4α,12aα)]-4,7-Bis(dimethylamino)-9-[[(heptylamino)acetyl]amino]-1,4,4a,5,5a,6,11,12a-octahydro-3,10,12,12a-tetrahydroxy-1,11-dioxo-2-naphthacenecarboxamide dihydrochloride] | 2.4 | 2.2 |
| CN(C)CC(=O)Nc1cc(N(C)C)c2c(c1O)C(=O)C1=C(O)[C@]3(O)C(=O)C(C(N)=O)=C(O)[C@@H](N(C)C)C3CC1C2 (stereo partly drawn) [Example 2, [4S-(4a,12aa-1-4,7-Bis(dimethylamino)-9-[[(dimethylamino)acetyl]amino]]-1,4,,4a,5,5a,6,11,12a-octahvdro-3,10,12,12a-tetrahydroxy-1,11-dioxo-2-napththacenecarboxamidedihydrochloride] | 5.6 | 6.6 |
